Experimental findings from patent EP0606044A1, “Lactones compounds useful as pharmaceuticals” (SANDOZ LTD., priority 1992, dated 1994) are described below.

Data set [1] in a line: Solubility (characteristics of the metabolite). Type of data set: physicochemical. The text has this: Formula I', which is formula I in which R₄ and R₅ are methoxy, R₆ is OH, -a-b- is cis- -CH=CH-, c is C=O, -d-e- is -CHOH-CHOH-, -f-g- is trans- -CH=CH- and the asymmetric carbon atoms marked * all have the S-configuration [drawing 2] is the structure which has been assigned to the novel metabolite designated 87-250904-F1 and having the following characteristics: White needles (from methanol/water 1:1), m.p. […] HPLC : Column : LiChrospher 100 RP-8 (5µm) (LiChroCART 125-4, Merck) Mobile phase: acetonitrile/water/orthophosphoric acid 350:650:0.175 (by vol.) Flow rate: 1.0 ml/min Detection: UV 210 nm Retention time: 3.8 min.

The subject of the next data set is THP-1 cells. Kind of data set: Cytokine release from THP-1 cells (γ-interferon/LPS stimulated; ELISA, RIA, LDH, DNA). Type of data set: cell-based. The following applies: Homo sapiens, γ-interferon, LPS, 40 hours, read-out: IC₅₀ value in the THP-1 test (concentration of compound which inhibits to 50 % the release of IL-1β). Here is the method: 1. Cytokine Release from THP-1 Cells
The THP-1 cell line is generally available and is described by Tsuchiya et al, Int. J. Cancer 26 171-176 (1980). 900 µl THP-1 cells (0.5 x 10⁶ cells) together with 100 U γ-interferon/0.9 ml RPMI 1640 medium (containing 2 mM L-glutamine and 5 % heat-inactivated foetal calf serum) are pipetted into 24 well culture plates. 100 µl of the compound to be tested are then added. After 3 hours at 37°C in 5 % CO2/95 % air, 10 µl lipopolysaccharide 500 µg/ml is added and the incubation continued for a further 40 hours. Appropriate controls (with and without stimulus, solvent) are also included. The media are then removed and clarified by centrifugation at 1000 g for 10 min. 1.0 ml digitonin 0.01 % is added to the wells to lyse the cells which are loosened by scraping with a rubber policeman and left at 4°C for 10 min. […] IL-1β, IL-6 and TNF-α assays are determined using commercially available ELISA kits (Cistron), PGE2 is measured using a standard RIA and DNA fluorimetrically using DAPI (4',6-diamidino-2-phenylindole.2HCl) […]
For the above uses the required dosage will of course vary depending on the mode of administration, the particular condition to be treated and the effect desired. […] It has been determined that the compound of Formula I' has an IC₅₀ value in the THP-1 test (concentration of compound which inhibits to 50 % the release of IL-1β) of 0.06 µM.
Background: ELISA stands for enzyme-linked immunosorbent assay.

As to `COc1cc(O)c2c(c1OC)/C=C/C[C@H](O)[C@H](O)C(=O)/C=C\C[C@H](C)OC2=O` [Formula I', [3S-(3R*, 5Z, 8R*, 9R*, 11E)]-3,4,9,10-tetrahydro-8,9,16-trihydroxy-13,14-dimethoxy-3-methyl-1H[2] benzoxacyclotetradecin-1,7[8H] dione], the “Solubility in methanol, DMSO, chloroform” value in data set [1] (methanol, DMSO, chloroform) was “readily soluble”. In addition, in data set [1] (water), the Solubility in water result is listed as “Almost insoluble”.
`COc1cc(O)c2c(c1OC)/C=C/C[C@H](O)[C@H](O)C(=O)/C=C\C[C@H](C)OC2=O` [Formula I']: in the data set on THP-1 cells, the IC50 came to 60 nM.
